The source of these data is patent publication US9840532B2, “5′-substituted nucleoside compounds” (Eli Lilly and Company, priority 2015, dated 2017).

Assay [1] relates to PRMT5-dependent alternative splicing of MDM4 in A375 melanoma cells. Kind of assay: MDM4 Exon5/6 qPCR Assay in A375 Tumor Cells. Type of assay: cell-based. The note with it: Homo sapiens, A-375, 72 hr, Mean ± SEM. The method, then: Culture A375 tumor cells (ATCC), a melanoma cancer cell line, to 70%-90% confluence in T150 flasks with the growth medium (DMEM; HYCLONE™ #SH30022 with 10% FBS; GIBCO® 10082-147 or equivalent). Treat the cells with standard trypsin/EDTA treatment for 3 min and aspirate and wash with PBS to release the adherent cells from the culture flask. Seed the cells into a 96 well plate (Costar 3596) at 5000/well in growth medium (90 μL). Incubate the plate overnight at 37° C. and 5% CO2 and treat the cells with test compound at serial dilutions ([…], final DMSO addition of 0.2% yield) for 72 hr. Measure activity relative to maximum (2.0 μM of Example 2 and minimum (0.2% DMSO) controls.
On Day 5 after incubation, remove the medium from the culture plates and wash the cells twice with cold PBS (150 μL/well). Prepare Lysis Working Reagent from the TAQMAN® Gene Expression Cells-to-CT Kit (INVITROGEN™ cat. # AM1729) by dilution of DNAse 1 into Lysis Solution at 1/100. Add Lysis Working Reagent (50 μL/well) to the cell plates, mix well, and incubate at room temperature for 5 min Add kit stop solution (5 μL) to each well, mix the wells, and incubate for 2 min at room temperature. Prepare Reverse Transcriptase Master Mix in the following volume ratios; RT buffer: Nuclease-free water: RT Enzyme at 62.5:31.25:6.25. Add RT mix (48 μL/well) to each well of a 96-well NUNC™ plate (THERMO SCIENTIFIC™ #260860). Add RT mix (20 μL) and each cell lysate sample (5 μL) into a 384 PCR plate (Clear Optical Reaction Plate, cat. #4309849, APPLIED BIOSYSTEMS®) quadrant 1 and add a second addition of RT Mix and cell lysate to quadrant 3. For the RT reaction, seal the plates and then place them in a thermal cycler set at 37° C. for 60 min; 95° C. for 5 min; stop at 4° C. For qPCR, prepare MDM4 exon 5 primers (Life Technologies Hs00967240-ml) and exon 6 primers (Life Technologies Hs00967242-ml) separately in the following volume ratios of RT mix: H2O: exon probe at 10:6:1. Add Exon 5 (17 μL) to odd columns of a 384 PCR plate and add exon 6 (17 μL) to the even columns. Add cDNA (3 μL, from the RT plate) by quadrant stamping to each well of the qPCR plate containing the 17 μL exon primer solution. In this manner, perform qPCR for both exons on cDNAs from a single RT reaction on an individual cell lysate. Seal the plates, spin, and place on a real-time PCR instrument (Life Technologies ViiA7 Real-Time PCR). […]
Retrieve CT data from the real-time PCR reader and perform the following calculations, where “CPD” is the value from compound-treated samples, and “DMSO” is the minimum control sample, using an Excel template: (Exon 6 CT CPD−Exon 6 CT DMSO)−(Exon 5 CT CPD−Exon 5 CT DMSO)=ΔCT 2^(−ΔCT)=Fold Change […]

Assay [2] deals with A375 (melanoma) cells. Kind of assay: Xenograft tumor model, melanoma (A375). Format: in vivo, mouse. The following applies: 4-day-on and 3-day-off schedule for 26 days, oral gavage. How it is done:
The purpose of this assay is to measure in a mouse model of cancer the reduction in tumor volume in response to test compound administration.
Grow A375 (melanoma) cells in DMEM/High glucose (HYCLONE™ cat. # SH30022) with 10% HI FBS (GIBCO® cat. #10082-147). Grow Will-2 (DLBCL) cells in RPMI 1640 with L-glutamine and 20% heat inactivated FBS. Grow Namalwa (Burkitt's lymphoma) cells (ATCC) in RPMI 1640 media supplemented with L-glutamine, 25 mM HEPES (GIBCO® 22400-089), 1 mM sodium pyruvate and 7.5% FBS. Grow Molt 4 cells in RPMI 1640 with L-glutamine, 25 mM HEPES [GIBCO 22400-089], 1 mM sodium pyruvate, and 10% FBS. Harvest cells and inject subcutaneously onto the rear flank of nude mice (A375: 5×10^6 cells/animal, mixed 1:1 with MATRIGEL®; Will-2; 1×10^7 cells/animal; Namalwa: 2×10^6 cells/animal; Molt 4: : 5×10^6 cells/animal, mixed 1:1 with MATRIGEL®). When tumors are established (approximately 200 mm^3, 7-21 days after implant), randomize animals, and group them into control and test groups. Formulate the test compound in 1% HEC/0.25% TWEEN®-80/0.05% Antifoam. Administer test compound and vehicles by oral gavage. Determine tumor response by tumor volume measurement (caliper) performed twice a week during the course of treatment and report as the percent inhibition of tumor volume versus the vehicle control group.

As for `Nc1ncnc2c1ccn2[C@@H]1O[C@H]([C@H](O)c2ccc(Cl)cc2)[C@@H](O)[C@H]1O` [Example 1, (2R,3R,4S,5R)-2-(4-Aminopyrrolo[2,3-d]pyrimidin-7-yl)-5-[(R)-(4-chlorophenyl)-hydroxy-methyl]tetrahydrofuran-3,4-diol], a half-maximal response in assay [1] (EC50) required 16.8 nM. The “percent inhibition of tumor volume versus vehicle” value in assay [2] (10 mg/kg QD) came to 64%; in assay [2] (15 mg/kg), 71%.

As to `Nc1ncnc2c1ccn2[C@@H]1O[C@H]([C@H](O)c2ccccc2)[C@@H](O)[C@H]1O` [Example 2, (2R,3R,4S,5R)-2-(4-Aminopyrrolo[2,3-d]pyrimidin-7-yl)-5[(R)-hydroxy(phenyl)methyl]tetrahydrofuran-3,4-diol], a half-maximal effect in assay [1] (EC50) was put at 36.7 nM.

`C[C@@](O)(c1ccc(Cl)cc1)[C@H]1O[C@@H](n2ccc3c(N)ncnc32)[C@H](O)[C@@H]1O` [Example 3, (2R,3R,4S,5S)-2-(4-Aminopyrrolo[2,3-d]pyrimidin-7-yl)-5-[(1R)-1-(4-chlorophenyl)-1-hydroxy-ethyl]tetrahydrofuran-3,4-diol]: the EC50 – broadly, the concentration at which the effect is half-maximal – in assay [1] was 42.4 nM.
